Experimental data reported in ChEMBL document CHEMBL1146677, “Orally active anti-proliferation agents: novel diphenylamine derivatives as FGF-R2 autophosphorylation inhibitors” (Bioorg Med Chem Lett, 2004).
In brackets after ≈: the same amount, converted by molar mass. Activity calls are given as the source filed them.

Experiments:
[1] = target: T1, Insulin-like growth factor 1 receptor (Homo sapiens, UniProt P08069); assay: Inhibition of IGF-receptor 1 autophosphorylation in intact cells; format: cell-based
T1 sequence (P08069 31-736 limits assumed): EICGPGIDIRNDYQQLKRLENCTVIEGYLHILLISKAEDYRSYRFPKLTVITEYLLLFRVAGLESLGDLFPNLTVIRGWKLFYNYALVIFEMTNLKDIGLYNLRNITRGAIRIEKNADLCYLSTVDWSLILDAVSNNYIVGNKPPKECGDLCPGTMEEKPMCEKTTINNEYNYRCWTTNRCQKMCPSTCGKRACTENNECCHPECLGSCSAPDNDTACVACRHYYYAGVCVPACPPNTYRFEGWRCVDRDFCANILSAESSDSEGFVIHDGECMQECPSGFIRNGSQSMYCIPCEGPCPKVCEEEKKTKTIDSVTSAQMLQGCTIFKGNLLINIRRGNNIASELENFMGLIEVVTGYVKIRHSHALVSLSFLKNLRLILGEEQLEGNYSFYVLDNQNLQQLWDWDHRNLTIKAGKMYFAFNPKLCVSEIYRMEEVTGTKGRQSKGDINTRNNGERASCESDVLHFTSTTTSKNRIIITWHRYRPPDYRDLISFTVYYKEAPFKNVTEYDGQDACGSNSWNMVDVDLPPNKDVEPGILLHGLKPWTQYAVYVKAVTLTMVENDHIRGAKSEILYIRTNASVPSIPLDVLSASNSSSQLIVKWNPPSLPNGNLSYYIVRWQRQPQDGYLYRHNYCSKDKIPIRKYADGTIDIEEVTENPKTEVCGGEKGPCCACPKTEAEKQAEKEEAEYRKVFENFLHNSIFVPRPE
T1 sequence (P08069 741-1367 limits assumed): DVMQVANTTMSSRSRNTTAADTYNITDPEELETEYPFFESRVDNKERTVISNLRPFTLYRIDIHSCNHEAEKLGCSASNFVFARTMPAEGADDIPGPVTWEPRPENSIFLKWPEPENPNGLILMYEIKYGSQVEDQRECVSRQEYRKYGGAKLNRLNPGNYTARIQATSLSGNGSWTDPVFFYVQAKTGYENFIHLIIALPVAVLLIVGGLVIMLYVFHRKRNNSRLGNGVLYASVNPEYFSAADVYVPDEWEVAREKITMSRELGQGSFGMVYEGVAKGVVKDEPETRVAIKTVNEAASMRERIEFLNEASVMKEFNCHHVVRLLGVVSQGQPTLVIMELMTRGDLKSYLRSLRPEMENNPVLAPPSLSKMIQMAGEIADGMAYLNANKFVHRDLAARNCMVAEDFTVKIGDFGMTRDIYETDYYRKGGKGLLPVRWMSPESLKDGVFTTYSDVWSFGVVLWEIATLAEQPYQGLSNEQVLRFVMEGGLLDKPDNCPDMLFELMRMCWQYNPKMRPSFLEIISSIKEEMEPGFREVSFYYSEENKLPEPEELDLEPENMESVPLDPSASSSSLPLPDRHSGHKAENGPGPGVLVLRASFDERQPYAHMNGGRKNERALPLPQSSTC

[2] = target: T2, Hepatocyte growth factor receptor (Homo sapiens, UniProt P08581); assay: Inhibition of c-Met autophosphorylation in intact cells at 10 uM (inactive); format: cell-based
T2 sequence (P08581 whole entry): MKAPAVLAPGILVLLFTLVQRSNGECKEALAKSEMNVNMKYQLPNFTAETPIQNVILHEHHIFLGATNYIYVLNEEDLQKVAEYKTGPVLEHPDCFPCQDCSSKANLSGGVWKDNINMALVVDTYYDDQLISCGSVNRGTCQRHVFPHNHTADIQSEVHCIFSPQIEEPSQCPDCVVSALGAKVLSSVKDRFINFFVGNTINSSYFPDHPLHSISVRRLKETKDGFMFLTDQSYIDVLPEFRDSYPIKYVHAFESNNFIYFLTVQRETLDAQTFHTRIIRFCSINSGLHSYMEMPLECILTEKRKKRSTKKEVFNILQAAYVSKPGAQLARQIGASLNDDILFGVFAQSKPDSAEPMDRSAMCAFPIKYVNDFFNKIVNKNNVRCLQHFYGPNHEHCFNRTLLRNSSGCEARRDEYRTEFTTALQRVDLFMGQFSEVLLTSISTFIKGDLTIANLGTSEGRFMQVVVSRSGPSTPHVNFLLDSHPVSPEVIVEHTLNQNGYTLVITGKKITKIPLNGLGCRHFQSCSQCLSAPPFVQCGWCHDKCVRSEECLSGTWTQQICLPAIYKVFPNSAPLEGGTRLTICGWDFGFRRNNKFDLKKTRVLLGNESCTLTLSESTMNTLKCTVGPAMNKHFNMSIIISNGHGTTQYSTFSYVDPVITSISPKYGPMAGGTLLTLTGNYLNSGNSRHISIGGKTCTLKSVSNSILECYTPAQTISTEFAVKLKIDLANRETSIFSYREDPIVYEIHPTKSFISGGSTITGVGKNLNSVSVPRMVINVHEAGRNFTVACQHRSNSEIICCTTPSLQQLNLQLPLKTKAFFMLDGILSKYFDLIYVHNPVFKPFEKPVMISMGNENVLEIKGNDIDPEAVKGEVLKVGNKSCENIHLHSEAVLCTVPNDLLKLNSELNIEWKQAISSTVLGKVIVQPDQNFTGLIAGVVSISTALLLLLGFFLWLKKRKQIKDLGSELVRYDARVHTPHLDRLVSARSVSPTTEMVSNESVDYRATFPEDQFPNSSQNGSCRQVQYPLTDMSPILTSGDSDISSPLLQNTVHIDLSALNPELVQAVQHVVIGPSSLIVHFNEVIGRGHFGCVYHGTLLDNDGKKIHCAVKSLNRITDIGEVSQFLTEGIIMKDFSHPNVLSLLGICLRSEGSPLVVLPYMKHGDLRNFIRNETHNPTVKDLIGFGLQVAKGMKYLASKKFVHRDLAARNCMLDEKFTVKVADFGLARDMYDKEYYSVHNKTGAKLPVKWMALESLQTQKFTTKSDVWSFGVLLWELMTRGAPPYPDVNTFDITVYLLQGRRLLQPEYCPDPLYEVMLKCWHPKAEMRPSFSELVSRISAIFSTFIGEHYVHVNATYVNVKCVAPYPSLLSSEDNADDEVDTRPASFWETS

Rattus norvegicus [3] = organism: Rattus norvegicus; assay: Percent remaining after incubation with rat liver microsomes for 40 min; format: functional
[4] = target: Vascular endothelial growth factor receptor 2 (Homo sapiens, UniProt P35968); assay: Inhibition of vascular endothelial growth factor receptor 2 autophosphorylation in intact cells; format: cell-based
[5] = Solubility after injection of water; format: physicochemical; conditions: read-out: Activity
[6] = target: Platelet-derived growth factor receptor (Homo sapiens, UniProt P09619+P16234); assay: Inhibition of PDGF-receptor autophosphorylation in intact cells; format: cell-based
[7] = target: T1, Insulin-like growth factor 1 receptor; assay: Inhibition of IGF-receptor 1 autophosphorylation in intact cells at 10 uM (inactive); format: cell-based
[8] = target: T3, Epidermal growth factor receptor (Homo sapiens, UniProt P00533); assay: Inhibition of EGF-receptor autophosphorylation in intact cells at 10 uM (inactive); format: cell-based
[9] = target: Mast/stem cell growth factor receptor Kit (Homo sapiens, UniProt P10721); assay: Inhibition of c-Kit autophosphorylation in intact cells; format: cell-based
[10] = Solubility after at pH 1.2; format: physicochemical; conditions: buffer, read-out: Activity
[11] = target: T3, Epidermal growth factor receptor; assay: Inhibition of EGF-receptor autophosphorylation in intact cells; format: cell-based
[12] = target: T2, Hepatocyte growth factor receptor; assay: Inhibition of c-Met autophosphorylation of in intact cells; format: cell-based
Rattus norvegicus [13] = organism: Rattus norvegicus; assay: Percent remaining after incubation with rat liver microsomes for 10 min; format: functional
[14] = target: T4, Fibroblast growth factor receptor 2 (Homo sapiens, UniProt P21802); assay: In vitro inhibition against autophosphorylation of Fibroblast growth factor receptor 2 in the human scirrhous gastric carcinoma cell line
Target sequence in this assay (P21802 whole entry): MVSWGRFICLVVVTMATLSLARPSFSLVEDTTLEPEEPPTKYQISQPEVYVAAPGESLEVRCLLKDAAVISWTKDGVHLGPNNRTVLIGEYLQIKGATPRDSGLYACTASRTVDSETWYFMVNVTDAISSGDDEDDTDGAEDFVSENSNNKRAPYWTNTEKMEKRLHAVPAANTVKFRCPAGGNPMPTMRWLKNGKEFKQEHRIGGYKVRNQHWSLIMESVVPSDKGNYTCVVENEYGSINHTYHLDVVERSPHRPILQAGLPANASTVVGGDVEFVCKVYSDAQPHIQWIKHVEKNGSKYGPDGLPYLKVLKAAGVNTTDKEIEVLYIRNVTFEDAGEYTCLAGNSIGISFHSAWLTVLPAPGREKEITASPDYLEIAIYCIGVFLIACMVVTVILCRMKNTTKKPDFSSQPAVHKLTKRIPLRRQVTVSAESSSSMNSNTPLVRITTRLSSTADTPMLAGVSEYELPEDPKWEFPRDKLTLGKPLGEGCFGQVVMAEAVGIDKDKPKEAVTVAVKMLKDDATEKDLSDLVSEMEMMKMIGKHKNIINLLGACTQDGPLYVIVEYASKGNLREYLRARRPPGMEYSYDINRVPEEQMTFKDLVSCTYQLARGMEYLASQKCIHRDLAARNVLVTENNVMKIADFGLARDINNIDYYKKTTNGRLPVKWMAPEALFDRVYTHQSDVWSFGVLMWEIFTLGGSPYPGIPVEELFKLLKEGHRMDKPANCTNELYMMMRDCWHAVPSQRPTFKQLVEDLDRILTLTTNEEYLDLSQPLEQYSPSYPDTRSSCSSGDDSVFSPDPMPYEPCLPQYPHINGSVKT

Homo sapiens [15] = organism: Homo sapiens; assay: Percent remaining after incubation with human liver microsomes for 40 min; format: functional
Homo sapiens [16] = organism: Homo sapiens; assay: Percent remaining after incubation with human liver microsomes for 10 min; format: functional
[17] = target: T4, Fibroblast growth factor receptor 2; assay: Ex vivo inhibition of fibroblast growth factor receptor (FGF-R2) autophosphorylation 5 hr after the oral administration at 100 mg/kg; format: functional, organism-based; parameters: dose 100 mg/kg
Target sequence in this assay (P21802 22-821 limits assumed): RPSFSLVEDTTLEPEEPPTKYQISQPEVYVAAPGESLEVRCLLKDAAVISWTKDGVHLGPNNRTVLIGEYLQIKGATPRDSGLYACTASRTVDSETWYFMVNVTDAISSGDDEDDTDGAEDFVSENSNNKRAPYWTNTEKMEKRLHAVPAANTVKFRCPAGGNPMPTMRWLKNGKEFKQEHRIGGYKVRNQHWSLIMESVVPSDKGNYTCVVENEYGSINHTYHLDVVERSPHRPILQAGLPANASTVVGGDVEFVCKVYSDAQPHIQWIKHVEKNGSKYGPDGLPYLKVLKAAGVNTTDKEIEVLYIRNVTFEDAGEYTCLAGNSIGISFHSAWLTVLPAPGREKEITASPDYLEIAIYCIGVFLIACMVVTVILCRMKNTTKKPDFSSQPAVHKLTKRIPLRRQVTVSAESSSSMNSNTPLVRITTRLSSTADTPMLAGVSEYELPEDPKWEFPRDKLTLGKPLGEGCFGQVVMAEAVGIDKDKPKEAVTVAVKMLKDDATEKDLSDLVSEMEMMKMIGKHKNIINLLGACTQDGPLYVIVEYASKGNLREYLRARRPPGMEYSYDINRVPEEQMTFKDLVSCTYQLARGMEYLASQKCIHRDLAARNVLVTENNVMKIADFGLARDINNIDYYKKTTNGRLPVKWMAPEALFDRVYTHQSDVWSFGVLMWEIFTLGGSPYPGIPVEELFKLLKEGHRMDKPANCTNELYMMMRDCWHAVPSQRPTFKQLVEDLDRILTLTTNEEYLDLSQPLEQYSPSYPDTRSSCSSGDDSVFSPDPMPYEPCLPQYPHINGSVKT

[18] = Solubility after at a pH 1.2; format: physicochemical; conditions: buffer, read-out: Activity

Compound	Metabolism (Rattus norvegicus [13]) [%]	IC50 [14] [nM]	also measured
COc1cc2c(Oc3ccc(Nc4ccc(C(C)(C)C)cc4)cc3)ccnc2cc1OCCNCCO	97	88	IC50 [1]: > 10000 nM; Activity [2]: inactive; Metabolism (Rattus norvegicus [3]): 78%; IC50 [4]: 83 nM; solubility [5]: 108 µg/mL (≈ 215 µM); IC50 [6]: 100 nM; Activity [7]: inactive; Activity [8]: inactive; IC50 [9]: 480 nM; solubility [10]: 802 µg/mL (≈ 1600 µM); IC50 [11]: > 10000 nM; IC50 [12]: > 10000 nM; Metabolism (Homo sapiens [15]): 89%; Metabolism (Homo sapiens [16]): 99%
COc1cc2c(Oc3ccc(Nc4ccc(C(C)(C)C)cc4)cc3)ccnc2cc1OCCN1CCC(CO)CC1	51	23	–
COc1cc2c(Oc3ccc(Nc4ccc(C(C)(C)C)cc4)cc3F)ccnc2cc1OCCNCCO	60	70	–
COc1cc2c(Oc3ccc(Nc4ccc(C(C)(C)C)cc4)cc3)ccnc2cc1OCC(O)CN1CCCCC1 (stereo unspecified)	78	200	–
COc1cc2nccc(Oc3ccc(Nc4ccc(C(C)C)cc4)cc3)c2cc1OC	–	200	–
COc1cc2c(Oc3ccc(Nc4ccc(C(C)(C)C)cc4)c(F)c3)ccnc2cc1OCCNCCO	92	260	–
COc1cc2nccc(Oc3ccc(C(=O)c4ccc(C(C)(C)C)cc4)cc3)c2cc1OC	–	190	inhibition [17]: 3%
COc1cc2c(Oc3ccc(Nc4ccc(C(C)(C)C)cc4)cc3)ccnc2cc1OCC(O)CN1CCOCC1 (stereo unspecified)	72	71	–
COc1cc2nccc(Oc3ccc(Nc4ccc(C(C)(C)C)cc4)cc3)c2cc1OC	–	40	inhibition [17]: 70%; solubility [18]: 3 µg/mL (≈ 7 µM)
COc1ccc(Nc2ccc(Oc3ccnc4cc(OC)c(OC)cc34)cc2)cc1	–	780	–
COc1cc2nccc(Oc3ccc(Nc4ccc(C(C)(C)C)cc4)c(C(F)(F)F)c3)c2cc1OC	–	> 10000	–
COc1cc2nccc(Oc3ccc(Nc4ccc(C(C)(C)C)cc4)cc3F)c2cc1OC	–	54	–
COc1cc2nccc(Oc3ccc(Nc4ccc(C(C)(C)C)cc4)c(F)c3)c2cc1OC	–	63	–
COc1cc2nccc(Oc3ccc(Cc4ccc(C(C)(C)C)cc4)cc3)c2cc1OC	–	> 1000	inhibition [17]: 5%
COc1cc2c(Oc3ccc(Nc4ccc(C(C)(C)C)cc4)cc3)ccnc2cc1OCCCN1CCCCC1	28	350	–
COc1cc2c(Oc3ccc(Nc4ccc(C(C)(C)C)cc4)cc3)ccnc2cc1OCCN(CCO)CCO	46	71	–
COc1cc2nccc(Oc3ccc(Nc4ccc(C(C)(C)C)cc4)c(C)c3)c2cc1OC	–	100	–
COc1cc2nccc(Oc3ccc(Oc4ccc(C(C)(C)C)cc4)cc3)c2cc1OC	–	440	–
COc1cc2nccc(Oc3ccc(Nc4cccc(-c5ccccc5)c4)cc3)c2cc1OC	–	> 10000	–
COc1cc2nccc(Oc3ccc(NC4CCC(C(C)(C)C)CC4)cc3)c2cc1OC (stereo unspecified)	–	3400	–
COc1cc2nccc(Oc3ccc(Nc4ccc(C(C)(C)C)cc4)c(C)c3C)c2cc1OC	–	130	–
COc1cc2c(Oc3ccc(Nc4ccc(C(C)(C)C)cc4)cc3)ccnc2cc1OCCN1CCOCC1	9	200	–
COc1cc2nccc(Oc3ccc(Nc4ccccc4)cc3)c2cc1OC	–	8900	–
COc1cc2nccc(Oc3ccc(Nc4ccc(C(C)(C)C)cc4)cc3C)c2cc1OC	–	> 10000	–
